The assay deals with T1, human histamine H4 receptor (Homo sapiens, UniProt Q9H3N8).
T1 construct: expressed in transfected cells; host or cells: SK-N-MC cells or COS7 cells, transiently transfected; cell membranes used
As to the kind of experiment: Binding Assay on Recombinant Human Histamine H4 Receptor. As for the experimental part: Binding Assay on Recombinant Human Histamine H4 Receptor
SK-N-MC cells or COS7 cells were transiently transfected with pH4R and grown in 150 cm^2 tissue culture dishes. Cells were washed with saline solution, scraped with a cell scraper and collected by centrifugation (1000 rpm, 5 min). Cell membranes were prepared by homogenization of the cell pellet in 20 mM Tris-HCl with a polytron tissue homogenizer for 10 sec at high speed. Homogenate was centrifuged at 1000 rpm for 5 min at 4° C. […] The final pellet was resuspended in 50 mM Tris-HCl. Cell membranes were incubated with ^3H-histamine (5-70 nM) in the presence or absence of excess histamine (10,000 nM). […] Membranes were harvested by rapid filtration over Whatman GF/C filters and washed 4 times with ice-cold 50 mM Tris HCl. Filters were then dried, mixed with scintillant and counted for radioactivity. SK-N-MC or COS7 cells expressing human histamine H4 receptor were used to measure the affinity of binding of other compounds and their ability to displace ^3H-ligand binding by incubating the above-described reaction in the presence of various concentrations of inhibitor or compound to be tested.

[1] abbreviates: competition binding with 3H-histamine (5 nM), membranes of SK-N-MC or COS7 cells expressing human H4 receptor, Cheng-Prusoff, KD 5 nM, average of results obtained, read-out: Ki.

Counter-ions that a name gives are not always drawn. Like-named read-outs stand apart in the source and are kept apart here. A value given as a limit tells only on which side of the number the result lay.

The term Ki denotes a measure of affinity in units of concentration, obtained from inhibition or displacement.

T1 sequence (Q9H3N8 whole entry): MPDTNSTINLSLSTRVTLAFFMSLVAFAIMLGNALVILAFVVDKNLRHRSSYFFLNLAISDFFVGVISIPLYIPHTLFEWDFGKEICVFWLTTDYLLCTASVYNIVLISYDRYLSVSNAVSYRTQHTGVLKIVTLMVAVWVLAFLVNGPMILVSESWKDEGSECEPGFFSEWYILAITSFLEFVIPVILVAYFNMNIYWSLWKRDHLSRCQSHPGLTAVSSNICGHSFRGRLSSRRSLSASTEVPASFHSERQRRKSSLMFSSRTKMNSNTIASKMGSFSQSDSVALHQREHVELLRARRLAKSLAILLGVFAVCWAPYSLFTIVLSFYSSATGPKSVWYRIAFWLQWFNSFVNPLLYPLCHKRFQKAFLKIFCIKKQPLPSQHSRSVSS

As to `CN1CCN(c2nc(N)nc3c2sc2cc(Br)ccc23)CC1` [Example 55, 7-Bromo-4-(4-methyl-piperazin-1-yl)-benzo[4,5]thieno[3,2-d]pyrimidin-2-ylamine trifluoroacetic acid salt], the Ki under setting [1] came to 0.043 µM.

In the case of `CN[C@@H]1CCN(c2nc(N)nc3c2sc2cc(Br)ccc23)C1` [Example 56, (R)-7-Bromo-4-(3-methylamino-pyrrolidin-1-yl)-benzo[4,5]thieno[3,2-d]pyrimidin-2-ylamine trifluoroacetic acid salt], under setting [1], the Ki came out at 0.025 µM.

As for `CN[C@H]1CCN(c2nc(N)nc3c2sc2cc(Br)ccc23)C1` [Example 57, (S)-7-Bromo-4-(3-methylamino-pyrrolidin-1-yl)-benzo[4,5]thieno[3,2-d]pyrimidin-2-ylamine trifluoroacetic acid salt], under setting [1], the Ki was 0.15 µM.

As for `Nc1nc(N2CC3CCCNC3C2)c2sc3cc(C(F)(F)F)ccc3c2n1` (centres unmarked) [Example 58, 4-(Octahydro-pyrrolo[3,4-b]pyridin-6-yl)-7-trifluoromethyl-benzo[4,5]thieno[3,2-d]pyrimidin-2-ylamine trifluoroacetic acid salt], the Ki under setting [1] was 0.3 µM.

In the case of `CN[C@@H]1CCN(c2nc(N)nc3c2sc2cc(Cl)ccc23)C1` [Example 60, (R)-7-Chloro-4-(3-methylamino-pyrrolidin-1-yl)-benzo[4,5]thieno[3,2-d]pyrimidin-2-ylamine trifluoroacetic acid salt], the Ki under setting [1] worked out at 0.0052 µM.

`CN[C@H]1CCN(c2nc(N)nc3c2sc2cc(Cl)ccc23)C1` [Example 61, (S)-7-Chloro-4-(3-methylamino-pyrrolidin-1-yl)-benzo[4,5]thieno[3,2-d]pyrimidin-2-ylamine trifluoroacetic acid salt]: the Ki under setting [1] came out at 0.033 µM.

As for `Nc1nc(N2C[C@@H]3C[C@H]2CN3)c2sc3cc(Cl)ccc3c2n1` [Example 62, (S,S)-7-Chloro-4-(2,5-diaza-bicyclo[2.2.1]hept-2-yl)-benzo[4,5]thieno[3,2-d]pyrimidin-2-ylamine trifluoroacetic acid salt], the Ki was determined as 0.88 µM.

Consider `CN1CCN(c2nc(N)nc3c2sc2cc(Cl)ccc23)CC1` [Example 63, 7-Chloro-4-(4-methyl-piperazin-1-yl)-benzo[4,5]thieno[3,2-d]pyrimidin-2-ylamine trifluoroacetic acid salt], for which, under setting [1], the Ki was 0.019 µM.

Regarding `Nc1nc(N2CC3CCCNC3C2)c2sc3ccc(Cl)cc3c2n1` (centres unmarked) [Example 64, 8-Chloro-4-(octahydro-pyrrolo[3,4-b]pyridin-6-yl)-benzo[4,5]thieno[3,2-d]pyrimidin-2-ylamine trifluoroacetic acid salt], the Ki stood at 0.005 µM.

Take `CN[C@H]1CCN(c2nc(N)nc3c2sc2ccc(Cl)cc23)C1` [Example 65, (S)-8-Chloro-4-(3-methylamino-pyrrolidin-1-yl)-benzo[4,5]thieno[3,2-d]pyrimidin-2-ylamine trifluoroacetic acid salt]: the Ki under setting [1] was determined as 0.1 µM.

For the molecule `CN[C@@H]1CCN(c2nc(N)nc3c2sc2ccc(Cl)cc23)C1` [Example 66, (R)-8-Chloro-4-(3-methylamino-pyrrolidin-1-yl)-benzo[4,5]thieno[3,2-d]pyrimidin-2-ylamine trifluoroacetic acid salt], under setting [1], the Ki worked out at 0.001 µM.

As to `CN1CCN(c2nc(N)nc3c2sc2ccc(Cl)cc23)CC1` [Example 67, 8-Chloro-4-(4-methyl-piperazin-1-yl)-benzo[4,5]thieno[3,2-d]pyrimidin-2-ylamine trifluoroacetic acid salt], the inhibitory constant (Ki) under setting [1] is 0.014 µM.

Regarding `Nc1nc(N2C[C@@H]3C[C@H]2CN3)c2sc3ccc(Cl)cc3c2n1` [Example 68, (S,S)-8-Chloro-4-(2,5-diaza-bicyclo[2.2.1]hept-2-yl)-benzo[4,5]thieno[3,2-d]pyrimidin-2-ylamine trifluoroacetic acid salt], the Ki came out at 0.84 µM.

Take `Nc1nc(N2CCN3CCCC3C2)c2oc3ccc(Cl)cc3c2n1` (centres unmarked) [Example 69, 8-Chloro-4-(hexahydro-pyrrolo[1,2-a]pyrazin-2-yl)-benzo[4,5]furo[3,2-d]pyrimidin-2-ylamine trifluoroacetic acid salt]: the inhibition constant (Ki) came to 0.015 µM.

For the molecule `CN1CCN(c2nc(N)nc3c2sc2ccc(F)cc23)CC1` [Example 70, 8-Fluoro-4-(4-methyl-piperazin-1-yl)-benzo[4,5]thieno[3,2-d]pyrimidin-2-ylamine trifluoroacetic acid salt], the Ki under setting [1] came to 0.0189 µM.

`Nc1nc(N2CC3CCNC3C2)c2oc3ccc(F)cc3c2n1` (centres unmarked) [Example 71, 8-Fluoro-4-(hexahydro-pyrrolo[3,4-b]pyrrol-5-yl)-benzo[4,5]furo[3,2-d]pyrimidin-2-ylamine trifluoroacetic acid salt]: the Ki came out at 0.0078 µM.

`CCN[C@H]1CCCN(c2nc(N)nc3c2oc2ccc(Cl)cc23)C1` [Example 72, (S)-8-Chloro-4-(3-ethylamino-piperidin-1-yl)-benzo[4,5]furo[3,2-d]pyrimidin-2-ylamine trifluoroacetic acid salt]: under setting [1], the inhibition constant (Ki) is 0.343 µM.

Consider `CCN[C@@H]1CCN(c2nc(N)nc3c2oc2ccc(Cl)cc23)C1` [Example 73, (R)-8-Chloro-4-(3-ethylamino-pyrrolidin-1-yl)-benzo[4,5]furo[3,2-d]pyrimidin-2-ylamine trifluoroacetic acid salt], for which the Ki under setting [1] is 0.075 µM.

Take `CN[C@H]1CCCN(c2nc(N)nc3c2oc2ccc(Cl)cc23)C1` [Example 74, (S)-8-Chloro-4-(3-methylamino-piperidin-1-yl)-benzo[4,5]furo[3,2-d]pyrimidin-2-ylamine citrate salt]: the inhibition constant (Ki) under setting [1] amounted to 0.216 µM.

For `CN(C)[C@H]1CCCN(c2nc(N)nc3c2oc2ccc(Cl)cc23)C1` [Example 75, (S)-8-Chloro-4-(3-dimethylamino-piperidin-1-yl)-benzo[4,5]furo[3,2-d]pyrimidin-2-ylamine trifluoroacetic acid salt], the Ki under setting [1] was 0.65 µM.

`CN[C@@H]1CCN(c2nc(N)nc3c2sc2ccc(F)cc23)C1` [Example 76, (R)-8-Fluoro-4-(3-methylamino-pyrrolidin-1-yl)-benzo[4,5]thieno[3,2-d]pyrimidin-2-ylamine trifluoroacetic acid salt]: the Ki under setting [1] stood at 0.032 µM.

For `Nc1nc(N2C[C@@H]3C[C@H]2CN3)c2sc3cc(Br)ccc3c2n1` [Example 77, (S,S)-7-Bromo-4-(2,5-diaza-bicyclo[2.2.1]hept-2-yl)-benzo[4,5]thieno[3,2-d]pyrimidin-2-ylamine trifluoroacetic acid salt], under setting [1], the Ki worked out at 3.23 µM.

In the case of `Nc1nc(N2CC3C(N)C3C2)c2oc3ccc(Cl)cc3c2n1` (centres unmarked) [Example 78, 4-(6-Amino-3-aza-bicyclo[3.1.0]hex-3-yl)-8-chloro-benzo[4,5]furo[3,2-d]pyrimidin-2-ylamine trifluoroacetic acid salt], under setting [1], the Ki turned out to be 0.022 µM.

Regarding `NC[C@H]1CCCN1c1nc(N)nc2c1oc1ccc(Cl)cc12` [Example 79, (R)-4-(2-Aminomethyl-pyrrolidin-1-yl)-8-chloro-benzo[4,5]furo[3,2-d]pyrimidin-2-ylamine trifluoroacetic acid salt], the Ki under setting [1] was greater than 10 µM.

Consider `Nc1nc(N2CC3CCNC3C2)c2oc3ccc(Cl)cc3c2n1` (centres unmarked) [Example 80, 8-Chloro-4-(hexahydro-pyrrolo[3,4-b]pyrrol-5-yl)-benzo[4,5]furo[3,2-d]pyrimidin-2-ylamine trifluoroacetic acid salt], for which the Ki came out at 0.0036 µM.

As for `Nc1nc(N2C[C@H]3C[C@@H]2CN3)c2oc3ccc(Cl)cc3c2n1` [Example 81, (R,R)-8-Chloro-4-(2,5-diaza-bicyclo[2.2.1]hept-2-yl)-benzo[4,5]furo[3,2-d]pyrimidin-2-ylamine trifluoroacetic acid salt], the Ki came out at 0.1 µM.

As for `Nc1nc(N2C[C@H]3CCCN[C@H]3C2)c2oc3ccc(Cl)cc3c2n1` [Example 82, (R,R)-8-Chloro-4-(octahydro-pyrrolo[3,4-b]pyridin-6-yl)-benzo[4,5]furo[3,2-d]pyrimidin-2-ylamine citrate salt], the Ki turned out to be 0.021 µM.

Regarding `Nc1nc(N2C[C@@H]3CCCN[C@@H]3C2)c2oc3ccc(Cl)cc3c2n1` [Example 83, 8-Chloro-4-(octahydro-pyrrolo[3,4-b]pyridin-6-yl)-benzo[4,5]furo[3,2-d]pyrimidin-2-ylamine citrate salt], the Ki was determined as 0.0047 µM.

Take `CN[C@@H]1CCN(c2nc(N)nc3c2oc2cccc(C(F)(F)F)c23)C1` [Example 84, (R)-4-(3-Methylamino-pyrrolidin-1-yl)-9-trifluoromethyl-benzo[4,5]furo[3,2-d]pyrimidin-2-ylamine citrate salt]: under setting [1], the Ki was greater than 10 µM.

With `COc1cccc2oc3c(N4C[C@@H]5C[C@H]4CN5)nc(N)nc3c12` [Example 85, (S,S)-4-(2,5-Diaza-bicyclo[2.2.1]hept-2-yl)-9-methoxy-benzo[4,5]furo[3,2-d]pyrimidin-2-ylamine trifluoroacetic acid salt], the Ki under setting [1] is greater than 10 µM.

Consider `COc1cccc2oc3c(N4CCNCC4)nc(N)nc3c12` [Example 86, 9-Methoxy-4-piperazin-1-yl-benzo[4,5]furo[3,2-d]pyrimidin-2-ylamine trifluoroacetic acid salt], for which the Ki under setting [1] came out at 0.047 µM.

In the case of `COc1cccc2oc3c(N4CCC[C@H](N)C4)nc(N)nc3c12` [Example 87, (S)-4-(3-Amino-piperidin-1-yl)-9-methoxy-benzo[4,5]furo[3,2-d]pyrimidin-2-ylamine trifluoroacetic acid salt], the Ki under setting [1] was greater than 10 µM.

For the origin of these results see US8030321B2, “Benzofuro- and benzothienopyrimidine modulators of the histamine H4 receptor” (Janssen Pharmaceutica, NV, priority 2006, dated 2011).
